For one series, the system named is tongue cancer. As to the kind of experiment: Experiment 3: clinical treatment of tongue cancer. It counts as in vivo, human.
Another series concerns colon carcinoma. As to the kind of experiment: Experiment 2: clinical treatment of colon carcinoma with metastatic cancer in the liver. Format: in vivo, human. The method, then: Person, colon carcinoma with metastatic cancer of 13 cm×10 cm×8 cm in the liver, abdominal dropsy observed.
The patient was subjected to abdominal surgery on June 4, 1979 but extraction of the cancer was impossible and the incised abdoment was immediately sutured.
Administration of 4,6-O-benzylidene-D-glucopyranose at a dosage of 20 mg/day/man (in the form of a physiological saline solution having an active ingredient concentration of 4 mg/ml) by intraperitoneal injection was stated on Aug. 25, 1979. The preparation for injection was prepared according to Example 1. In about one month, the abdominal dropsy disappeared, appetite improved and the overall body condition improved.
A C.T. scan of the liver of the patient before the start of the intraperitoneal injection, that was taken on Aug. 25, 1979, is shown in FIG. 1-A (the metastic lesion (A) appears on the left-side of the tomogram), and a C.T. scan of the same region taken on Dec.

Series [1] deals with peritonitis cartinimatosa. As to the kind of experiment: Experiment 4: clinical treatment of peritonitis carcinomatosa. Format: in vivo, human. As to conditions: 200 mg/day/man intravenous infusion. The method, then: Administration of 4,6-O-benzylidene-D-glucopyranose at a dosage of 200 mg/day/man by intravenous infusion was started for the treatment of the patient.
Another series concerns primary liver tumor. Briefly: Experiment 5: clinical treatment of primary liver tumor. It counts as in vivo, human. The settings on record: 200 mg/day/man intravenous infusion. The protocol:
4,6-O-benzylidene-D-glucopyranose was continuously administered at a dosage of 200 mg/day/man by intravenous infusion.

The subject of the next series is W2K.11 cells. As to the kind of experiment: SV40 test: inhibition of proliferation of SV40-transformed malignant cells. As to conditions: Mus musculus, read-out: proliferation inhibition ratio. Format: cell-based, C3H mice. The method, then: The SV40 (Simian Virus 40) method was adopted for determination of the carinostatic activity. According to this method, normal kidney cells of mice are transformed to malignant cells by the oncogenic virus SV40, the malignant cells are cultured, the test compound is added to the culture medium, the ratio of inhibition of proliferation of the cells is calculated and the carcinostatic activity is determined based on the calculated value. This method has recently been widely used because accurate results can be obtained [see proceedings of the Society for Experimental Biology and Medicine, 114, pages 721-727 (1963)].
The W2K.11 cells obtained by a malignant transformation of normal kidney cells of C3H mice by the oncogenic virus SV40 were used as cells for the test, and they were cultured according to the following method.
(1) Preparation of Culture Medium:
9.4 g of Eagle MEM Medium (manufactured by Nissui Seiyaku K.K.) was dissolved in 900 ml of distilled water and the solution was sterilized at 120° C., under pressure for 15 minutes. After cooling the sterilized solution, 100 ml of calf serum and 3 to 5 ml of a 10% aqueous solution of sodium hydrogencarbonate sterilized separately at 115° C. under pressure for 15 minutes were added to the solution to adjust the pH to 7.1 to 7.2. Just before the resulting culture medium was used, 10 ml of a L-glutamine solution (2.92 g/100 ml) filtered through A millipore filter was added thereto.
(2) Preparation of Test Cells:
The frozen test cells preserved in a deep freezer (-80° C.) with dimethyl sulfoxide added to the above culture medium to a final concentration of 10% were […] at room temperature and subjected to centrifugal separation under 670×g for 5 minutes. The supernatant was discarded and the precipitated cells were suspended in 50 ml of the culture medium. Then, the culture medium was transferred to a Roux flask and culturing was conducted at 37° C. The cells began to grow while adhering to the bottom of the flask, and sufficient growth was obtained in 3 to 4 days. […]

In series [2] the test system is colon carcinoma, tongue cancer, peritonitis carcinomatosa, liver cancer and stomach cancer. Briefly: clinical experiments, summary statement. It counts as in vivo, human. As to conditions: intravenous, about 20 to about 200 mg/day/man.
Another series deals with stomach cancer. As to the kind of experiment: Experiment 6: clinical treatment of stomach cancer. Format: in vivo, human. The settings on record: 200 mg/day/man intravenous infusion. The method, then: Patient: Stomach cancer of the terminal stage, the stomach extracted but many metastasized lesion in abdominal cavity, peritonitis cartinimatosa observed. […] The preparation for infusion was prepared according to Example 1. […] However, the patient died about 3 months after the start of administration.

The nature of series [3]: stability and solubility, general statement. It counts as physicochemical.
Series [4] in a line: acute toxicity, oral administration or subcutaneous injection in mice. As to conditions: mouse, in vivo; oral administration in mice. It counts as in vivo. The protocol:
(§1) The LD50 (mg/kg) value of the compound which is the active ingredient of the present invention, for example, in case of oral administration in mice is about 3000 mg/kg.

In a further series the test system is mice. The description is as above. Format: in vivo. As to conditions: subcutaneous injection or oral administration in mice. The protocol: as §1
A short description of series [5]: toxicity / side effects on continuous administration. It counts as in vivo.
Setting [6] is: 20 mg/day/man intraperitoneal injection, about 3 months.
The mark [7] stands for this setting: 20 mg/day/man intraperitoneal injection, about one month.
Where [8] appears, read: 200 mg/day/man intravenous infusion, after 10 days.

We go through three compounds from patent publication US4882314A, “A composition and method of treating selected malignant conditions” (priority 1987, dated 1989).

The structures appear in SMILES notation.

Take `N#C[C@H](O[C@@H]1O[C@H](CO[C@@H]2O[C@H](CO)[C@@H](O)[C@H](O)[C@H]2O)[C@@H](O)[C@H](O)[C@H]1O)c1ccccc1` [laetrile, amygdalin, reference compound]: in the series on tongue cancer (prior conventional chemotherapy, BCG, radiotherapy and laetrile), the “effect of prior treatment” value was “no effect could be observed”.
Turning to `O=c1[nH]c(=O)n(C2CCCO2)cc1F` (stereo not shown) [FT 207, reference compound], the “effect of prior treatment” value in the series with colon carcinoma (FT 207 treatment with cobalt 60 radiotherapy, initiated before the operation) is recorded as “no effect had been observed”.
As for `OC1O[C@@H]2COC(c3ccccc3)O[C@H]2[C@H](O)[C@H]1O` (stereo partly drawn) [4,6-O-benzylidene-D-glucopyranose], the patient outcome in series [1] was “died of paritonitis periforative about one month after the start of treatment”. Also, in [1] (one week), the abdominal dropsy entry is reported as “disappeared”; the “cancer metastasized to the skin” value is recorded as “contraction of the cancer metastasized to the skin”; the “condition of the disease” value was “subjective and objective improvements”. In the series with colon carcinoma (setting [6]), the “CEA unit value (the hepatic function test)” value was “remarkably reduced” and the “metastatic lesion in the liver” value is “almost disappeared”. Moreover, in the series with colon carcinoma (20 mg/day/man intraperitoneal injection, about 4 months, C.T. scan FIG. 1-A vs FIG. 1-B), the “metastatic lesion in the liver” value is “completely disappeared”. Further, in the series with colon carcinoma (setting [7]), the abdominal dropsy result is recorded as “disappeared”, the appetite result is reported as “improved”, the “metastatic lesion in the liver (C.T. scan)” value is on record as “contraction of the metastatic lesion in the liver had started” and the overall body condition entry is “improved”. The patient outcome in the series with colon carcinoma (after treatment, 20 mg/day/man intraperitoneal injection) was “has lead a normal life since then”. For the same compound, in the series on primary liver tumor (about one month), the abdominal dropsy entry is “reduction in the abdominal dropsy” and the liver tumor result was “prominent contraction of the liver tumor”. Also, in the series with primary liver tumor (terminal stage), the patient outcome is recorded as “died after about four months of treatment”. For the same compound, the “histopathology of the granular substance released from the submaxillar tumor” value with tongue cancer (200 mg/day/man intravenous infusion) is recorded as “composed of histopathologically keratinized squamous cells”. Further, the “malignant lesion of the tongue (photographs FIGS. 2-A, 3-A vs 2-B, 3-B)” value with tongue cancer (200 mg/day/man intravenous infusion, Oct. 15 to Nov. 19, 1979) is reported as “disappeared”. Further, in the series with tongue cancer (setting [8]), the submaxillar tumor result is “softened and began to release a granular substance”; the “tumor on the tongue” value is “began to disappear”. Moreover, in the series on tongue cancer (200 mg/day/man intravenous infusion, terminal stage), the patient outcome is given as “died after about one month of treatment”. The inhibition at 125 µg/mL with W2K.11 cells (72 h, 125 mcg/ml) was found to be 23%. Besides, the inhibition at 250 µg/mL in the series on W2K.11 cells (72 h, 250 mcg/ml) came to 37%. In addition, the inhibition at 500 µg/mL in the series with W2K.11 cells (500 mcg/ml, 72 hours of treatment) amounted to 72%. The clinical effect result in [2] is “prominent effect”. For the same compound, in the series with stomach cancer (one month), the abdominal dropsy entry is listed as “disappeared” and the subjective symptoms result was “remarkable improvement”. The “time to death after start of administration” value in the series on stomach cancer (terminal stage) is listed as “about 3 months”. Further, in [3], the stability result is given as “very stable” and the water solubility entry is listed as “water-soluble”. Besides, the LD50 in series [4] was approximately 3000 mg/kg. Also, the “acute toxicity compared with other carcinostatic agents” value in the series with mice is recorded as “much lower than that of other carinostatic agents”. For the same compound, in [5] (continuous administration at the above-mentioned dosage), the toxicity entry is recorded as “no toxicity is observed”. Moreover, the “toxicity, general statement” value in series [5] (in vivo) is reported as “lowly toxic”. In [5] (when administered), the “excretion from a living body” value is “readily excreted from a living body” and the side effects result is “no side effects are caused”.
